Patent US6331610A, “Method for treating AIDS and HIV infection using select peptides from the beta subunit of human chorionic gonadotropin” (priority 1997, dated 2001)
Entries after “also recorded” stand apart in the source; their conditions may differ.

Key:
IIIB strain of HIV-1 = test: Anti-HIV effect: protection of MT-4 T lymphocytes from HIV-caused cell death (XTT assay); type: cell-based; conditions: MT-4, HIV-1 IIIB, 100 mcg-1 ng per ml, 5-7 days
Description: Viability=100%×[(ODT)-(ODD)]/[(ODM)-(ODD)]
Where ODT is optical density values of culture wells treated with test peptides; ODM optical density of mock-infected cells; ODD light absorbance values of untreated cells dead from exposure to HIV.
The serial ten-fold dilutions (100 mcg-1 ng per ml) of 6 different synthetic peptides representing N-terminal and core region of hCG were tested for their effect on HIV replication (FIG. 1). […] In these experiments the viability of MT4 was determined after 5-7 days of continuous presence of the virus and hCG peptide fragment in the target cell culture.

MT-4 cells = conditions: 100 ng/ml and concentrations up to 1,000-fold higher
Description: MT-4 T lymphocytes (5×10^4 cells/ml) were seeded in 96well plates and exposed to IIIB strain of HIV-1 (at MOI equal to 100 infectious doses) in the presence of ten-fold, serial dilutions of hCG peptides (range 100 mcg-1 ng per ml). […] The tests were repeated three times with duplicates for each dilution of an individual peptide. All cultures were grown in RPMI-1640/10% FBS medium supplemented witi L-glutamine and penicillin/streptomycin. The culture plates were kept in a humidified incubator with 5% CO2 at 37° C. […] This difference in the survival pattern, indicative of the antiviral activity, was quantitated by tetrazolium salt XTT assay. This assay is based on the rationale that the viability of MT-4 correlates directly with the activity of mitochondrial hydrogenases converting XTT into optically dense formazan dye. […] At the appropriate time 1 mg/ml of XTT (Sigma, St Louis, Mo.) was nixed with 1% w/v phenazine methosulfate (Aldrich, Milwaukee, Wis.) and 20 mcl of the mixture was added to the wells for 4 hours. The optical density of formazan was then determined in a plate reader at 450 nm with reference filter at 620 nm. The proportion of surviving MT-4 cells treated with hCG peptides was calculated as a function of the viability of mock-infected cells in relation to positive control wells containing untreated cells dead from exposure to HIV.

Row | Compound | anti-HIV effect (in words) (IIIB strain of HIV-1) | toxicity to cells employed in the assay (MT-4 cells)
1 | K20 EGCPVCITVN30 TT (KEGCPVCITVNTT) [peptide #1] | active at nanogram doses | 
2 | C100 GGPKDHPLTC110 DD (CGGPKDHPLTCDD) [compound 7] | active; also recorded: restricted effect | 
3 | CC[C@H](C)[C@H](NC(=O)[C@@H]1CCCN1C(=O)[C@@H](NC(=O)[C@H](CC(=O)O)NC(=O)[C@H](CO)NC(=O)[C@@H]1CCCN1C(=O)CNC(=O)[C@@H]1CCCN1C(=O)[C@H](CC(C)C)NC(=O)[C@H](CCCNC(=N)N)NC(=O)[C@H](CO)NC(=O)[C@@H]1CCCN1C(=O)[C@H](CO)NC(=O)[C@@H]1CCCN1C(=O)[C@H](CC(C)C)NC(=O)[C@H](CO)NC(=O)[C@@H]1CCCN1C(=O)[C@@H]1CCCN1C(=O)[C@@H]1CCCN1C(=O)[C@H](C)NC(=O)[C@H](CCCCN)NC(=O)[C@H](CO)NC(=O)[C@H](CO)NC(=O)[C@H](CO)NC(=O)[C@H](CO)NC(=O)[C@H](CC(=O)O)NC(=O)[C@H](CCC(N)=O)NC(=O)[C@H](Cc1ccccc1)NC(=O)[C@H](CCCNC(=N)N)NC(=O)[C@@H]1CCCN1C(=O)[C@H](CC(=O)O)NC(=O)[C@H](CC(=O)O)NC(=O)[C@H](CS)NC(=O)[C@@H](NC(=O)[C@H](CC(C)C)NC(=O)[C@@H]1CCCN1C(=O)[C@@H](N)Cc1c[nH]cn1)[C@@H](C)O)[C@@H](C)O)C(=O)N[C@@H](CC(C)C)C(=O)N1CCC[C@H]1C(=O)N[C@@H](CCC(N)=O)C(=O)O [CTP of hCG] |  | not toxic
